{"source": "PubChem BioAssay AID1259407", "about": "(Chemical Carcinogenesis Research Information System (CCRIS), 2018)", "test_system": "CCRIS mutagenicity, Ames/micronucleus/aberration tests", "assay": "CCRIS mutagenicity studies", "key": {"[1]": {"conditions": "Test System: AMES SALMONELLA TYPHIMURIUM, Strain/Indicator: TA98, Metabolic Activation: NONE, Method: STANDARD PLATE"}, "[2]": {"conditions": "Test System: AMES SALMONELLA TYPHIMURIUM, Strain/Indicator: TA98, Metabolic Activation: RAT, LIVER, S-9, AROCLOR 1254, Method: STANDARD PLATE"}, "[3]": {"conditions": "Test System: AMES SALMONELLA TYPHIMURIUM, Strain/Indicator: TA100, Metabolic Activation: NONE, Method: STANDARD PLATE"}, "[4]": {"conditions": "Test System: AMES SALMONELLA TYPHIMURIUM, Strain/Indicator: TA100, Metabolic Activation: RAT, LIVER, S-9, AROCLOR 1254, Method: STANDARD PLATE"}, "[5]": {"conditions": "Test System: AMES SALMONELLA TYPHIMURIUM, Strain/Indicator: TA1537, Metabolic Activation: NONE, Method: STANDARD PLATE"}, "[6]": {"conditions": "Test System: AMES SALMONELLA TYPHIMURIUM, Strain/Indicator: TA1537, Metabolic Activation: RAT, LIVER, S-9, AROCLOR 1254, Method: STANDARD PLATE"}, "[7]": {"conditions": "Test System: AMES SALMONELLA TYPHIMURIUM, Strain/Indicator: TA1538, Metabolic Activation: NONE, Method: STANDARD PLATE"}, "[8]": {"conditions": "Test System: MOUSE LYMPHOMA, Strain/Indicator: L5178Y (TK+/TK-), Metabolic Activation: NONE, Method: SUSPENSION/PLATE"}}, "note": "Activity calls are given as the source filed them. The rule behind the calls is not given here.", "data": [{"smiles": "CCCCCCCCC=O", "values": [{"measurement": "mutagenic call", "setting": "End Point: IN VITRO CHROMOSOMAL ABERRATIONS, Test System: RAT HEPATOCYTES, Metabolic Activation: NONE", "value": "inactive; negative"}, {"measurement": "mutagenic call", "setting": "End Point: IN VITRO MICRONUCLEUS, Test System: RAT HEPATOCYTES, Metabolic Activation: NONE", "value": "inactive; negative"}, {"measurement": "mutagenic call", "setting": "Test System: AMES SALMONELLA TYPHIMURIUM, Strain/Indicator: TA98, Metabolic Activation: HAMSTER, LIVER, S-9, AROCLOR 1254, Method: STANDARD PLATE", "value": "inactive; negative"}, {"measurement": "mutagenic call", "setting": "[1]", "value": "inactive; negative"}, {"measurement": "mutagenic call", "setting": "[2]", "value": "inactive; negative"}, {"measurement": "mutagenic call", "setting": "Test System: AMES SALMONELLA TYPHIMURIUM, Strain/Indicator: TA98, Metabolic Activation: RAT, LIVER, S-9, AROCLOR, Method: STANDARD PLATE", "value": "inactive; negative"}, {"measurement": "mutagenic call", "setting": "Test System: AMES SALMONELLA TYPHIMURIUM, Strain/Indicator: TA100, Metabolic Activation: HAMSTER, LIVER, S-9, AROCLOR 1254, Method: STANDARD PLATE", "value": "inactive; negative"}, {"measurement": "mutagenic call", "setting": "[3]", "value": "inactive; negative"}, {"measurement": "mutagenic call", "setting": "[4]", "value": "inactive; negative"}, {"measurement": "mutagenic call", "setting": "Test System: AMES SALMONELLA TYPHIMURIUM, Strain/Indicator: TA100, Metabolic Activation: RAT, LIVER, S-9, AROCLOR, Method: STANDARD PLATE", "value": "inactive; negative"}, {"measurement": "mutagenic call", "setting": "Test System: AMES SALMONELLA TYPHIMURIUM, Strain/Indicator: TA1535, Metabolic Activation: HAMSTER, LIVER, S-9, AROCLOR 1254, Method: STANDARD PLATE", "value": "inactive; negative"}, {"measurement": "mutagenic call", "setting": "Test System: AMES SALMONELLA TYPHIMURIUM, Strain/Indicator: TA1535, Metabolic Activation: NONE, Method: STANDARD PLATE", "value": "inactive; negative"}, {"measurement": "mutagenic call", "setting": "Test System: AMES SALMONELLA TYPHIMURIUM, Strain/Indicator: TA1535, Metabolic Activation: RAT, LIVER, S-9, AROCLOR 1254, Method: STANDARD PLATE", "value": "inactive; negative"}, {"measurement": "mutagenic call", "setting": "Test System: AMES SALMONELLA TYPHIMURIUM, Strain/Indicator: TA1537, Metabolic Activation: HAMSTER, LIVER, S-9, AROCLOR 1254, Method: STANDARD PLATE", "value": "inactive; negative"}, {"measurement": "mutagenic call", "setting": "[5]", "value": "inactive; negative"}, {"measurement": "mutagenic call", "setting": "[6]", "value": "inactive; negative"}, {"measurement": "mutagenic call", "setting": "Test System: AMES SALMONELLA TYPHIMURIUM, Strain/Indicator: TA1538, Metabolic Activation: HAMSTER, LIVER, S-9, AROCLOR 1254, Method: STANDARD PLATE", "value": "inactive; negative"}, {"measurement": "mutagenic call", "setting": "[7]", "value": "inactive; negative"}, {"measurement": "mutagenic call", "setting": "Test System: AMES SALMONELLA TYPHIMURIUM, Strain/Indicator: TA1538, Metabolic Activation: RAT, LIVER, S-9, AROCLOR 1254, Method: STANDARD PLATE", "value": "inactive; negative"}, {"measurement": "mutagenic call", "setting": "Test System: AMES SALMONELLA TYPHIMURIUM, Strain/Indicator: UTH8413, Metabolic Activation: NONE, Method: STANDARD PLATE", "value": "inactive; negative"}, {"measurement": "mutagenic call", "setting": "Test System: AMES SALMONELLA TYPHIMURIUM, Strain/Indicator: UTH8413, Metabolic Activation: RAT, LIVER, S-9, AROCLOR, Method: STANDARD PLATE", "value": "inactive; negative"}, {"measurement": "mutagenic call", "setting": "Test System: AMES SALMONELLA TYPHIMURIUM, Strain/Indicator: UTH8414, Metabolic Activation: NONE, Method: STANDARD PLATE", "value": "inactive; negative"}, {"measurement": "mutagenic call", "setting": "Test System: AMES SALMONELLA TYPHIMURIUM, Strain/Indicator: UTH8414, Metabolic Activation: RAT, LIVER, S-9, AROCLOR, Method: STANDARD PLATE", "value": "inactive; negative"}, {"measurement": "mutagenic call", "setting": "Test System: CHINESE HAMSTER V-79, Strain/Indicator: V-79/6-THIOGUANINE (HGPRT), Metabolic Activation: NONE, Method: REPLATING", "value": "active; positive"}, {"measurement": "mutagenic call", "setting": "Test System: CHINESE HAMSTER V-79, Strain/Indicator: V-79/OUABAIN (NA/K), Metabolic Activation: NONE, Method: REPLATING", "value": "active; positive"}, {"measurement": "mutagenic call", "setting": "[8]", "value": "inactive; negative. reevaluation of results: equivocal"}, {"measurement": "mutagenic call", "setting": "Test System: MOUSE LYMPHOMA, Strain/Indicator: L5178Y (TK+/TK-), Metabolic Activation: RAT, LIVER, S-9, AROCLOR 1254, Method: SUSPENSION/PLATE", "value": "inactive; negative. reevaluation of results: equivocal"}, {"measurement": "mutagenic call", "setting": "Test System: UDS HUMAN HEPATOCYTES, Strain/Indicator: THY INCORP, Metabolic Activation: NONE, Method: AUTORADIOGRAPHY", "value": "inactive; negative"}, {"measurement": "mutagenic call", "setting": "Test System: UDS RAT HEPATOCYTES, Strain/Indicator: THY INCORP, Metabolic Activation: NONE, Method: AUTORADIOGRAPHY", "value": "inactive; negative"}]}, {"smiles": "CNc1ccc(NCCO)c2c1C(=O)c1ccccc1C2=O", "values": [{"measurement": "mutagenic call", "setting": "[1]", "value": "inactive; negative"}, {"measurement": "mutagenic call", "setting": "[2]", "value": "active; positive"}, {"measurement": "mutagenic call", "setting": "[3]", "value": "inactive; negative"}, {"measurement": "mutagenic call", "setting": "[4]", "value": "inactive; negative"}, {"measurement": "mutagenic call", "setting": "Test System: AMES SALMONELLA TYPHIMURIUM, Strain/Indicator: TA102, Metabolic Activation: NONE, Method: STANDARD PLATE", "value": "inactive; negative"}, {"measurement": "mutagenic call", "setting": "Test System: AMES SALMONELLA TYPHIMURIUM, Strain/Indicator: TA102, Metabolic Activation: RAT, LIVER, S-9, AROCLOR 1254, Method: STANDARD PLATE", "value": "active; positive"}, {"measurement": "mutagenic call", "setting": "Test System: AMES SALMONELLA TYPHIMURIUM, Strain/Indicator: TA104, Metabolic Activation: NONE, Method: STANDARD PLATE", "value": "inactive; negative"}, {"measurement": "mutagenic call", "setting": "[5]", "value": "inactive; negative"}, {"measurement": "mutagenic call", "setting": "[6]", "value": "active; positive"}, {"measurement": "mutagenic call", "setting": "[7]", "value": "inactive; negative"}, {"measurement": "mutagenic call", "setting": "Test System: MOUSE LYMPHOMA, Strain/Indicator: L5178Y (TK+/TK-), Metabolic Activation: NONE, Method: SUSPENSION PLATE", "value": "active; positive"}, {"measurement": "mutagenic call", "setting": "[8]", "value": "active; positive"}, {"measurement": "mutagenic call", "setting": "Test System: MOUSE LYMPHOMA, Strain/Indicator: L5178Y (TK+/TK-), Metabolic Activation: RAT, LIVER, S-9, AROCLOR 1254, Method: SUSPENSION PLATE", "value": "active; positive"}]}]}
